Source: BindingDB's records for doi:10.1016/S1074-5521(01)00067-9 (University of California San Francisco, 2001)

Experiments:
Assay in all cases: Inhibition Assay
[1] = molecular target: T1, Thymidylate synthase (Lacticaseibacillus casei, UniProt P00469)
T1 sequence (P00469 whole entry): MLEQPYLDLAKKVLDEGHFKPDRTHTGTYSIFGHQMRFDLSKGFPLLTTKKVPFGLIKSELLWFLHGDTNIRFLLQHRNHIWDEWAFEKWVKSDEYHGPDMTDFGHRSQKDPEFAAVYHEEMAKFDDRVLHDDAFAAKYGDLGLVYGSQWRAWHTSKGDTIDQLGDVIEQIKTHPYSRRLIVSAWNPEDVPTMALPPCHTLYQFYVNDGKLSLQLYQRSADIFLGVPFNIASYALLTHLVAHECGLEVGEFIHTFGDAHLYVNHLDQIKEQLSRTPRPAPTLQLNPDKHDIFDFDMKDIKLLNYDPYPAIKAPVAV
Text: (§1) Affinity assay of specificities of thymidylate synthase (TS)inhibitors

[2] = molecular target: Thymidylate synthase (Homo sapiens, UniProt P04818)
Text: as §1

[3] = molecular target: Thymidylate synthase (Escherichia coli (strain K12), UniProt P0A884)
Text: as §1

Chain of Thymidylate synthase (Homo sapiens, UniProt P04818) (P04818 whole entry): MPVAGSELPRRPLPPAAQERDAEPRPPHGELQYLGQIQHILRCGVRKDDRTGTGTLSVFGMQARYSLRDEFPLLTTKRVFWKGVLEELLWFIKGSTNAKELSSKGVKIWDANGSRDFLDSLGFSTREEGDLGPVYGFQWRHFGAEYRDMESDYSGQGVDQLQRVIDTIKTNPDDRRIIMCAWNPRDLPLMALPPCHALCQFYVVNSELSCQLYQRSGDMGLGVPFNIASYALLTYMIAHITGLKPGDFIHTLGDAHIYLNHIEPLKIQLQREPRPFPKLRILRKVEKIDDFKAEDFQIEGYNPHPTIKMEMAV
Chain of Thymidylate synthase (Escherichia coli (strain K12), UniProt P0A884) (P0A884 whole entry): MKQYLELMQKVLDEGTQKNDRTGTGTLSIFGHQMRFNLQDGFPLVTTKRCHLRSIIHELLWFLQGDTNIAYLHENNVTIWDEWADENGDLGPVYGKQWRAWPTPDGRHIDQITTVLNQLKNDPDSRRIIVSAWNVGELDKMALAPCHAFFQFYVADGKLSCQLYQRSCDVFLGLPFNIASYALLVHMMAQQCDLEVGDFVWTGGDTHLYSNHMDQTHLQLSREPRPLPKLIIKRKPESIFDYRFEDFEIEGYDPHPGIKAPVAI

Row | Compound | IC50 [1] | IC50 [2] | IC50 [3]
1 | NC(Cc1ccc(OC(=O)c2ccc3ccccc3c2)cc1)C(=O)O (centres undefined) [2-naphthylcarbonyl] | 70 µM | – | –
2 | NC(Cc1ccc(OS(=O)(=O)c2ccc3ccccc3c2)cc1)C(=O)O (centres undefined) [2-naphthylsulfonyl] | 4.7 µM | – | –
3 | CN(C)c1ccc(/N=N\c2ccc(S(=O)(=O)Oc3ccc(CC(N)C(=O)O)cc3)cc2)cc1 (centres undefined) [4'-(dimethylamino)azobenzene-4-sulfonyl] | > 100 µM | – | –
4 | CN(C)c1cccc2c(S(=O)(=O)NN)cccc12 [5-(dimethylamino)naphthalene-1-sulfonohydrazide] | 458 µM | 36 µM | 1110 µM

Continued, values first:

Row | IC50 [1] | IC50 [2] | IC50 [3] | Compound
5 | 53 µM | – | – | CCCCN(CCCC)c1cccc2c(S(=O)(=O)Oc3ccc(CC(N)C(=O)O)cc3)cccc12 (centres undefined)
6 | – | 771 µM | 1170 µM | CN(C)c1cccc2c(S(=O)(=O)Oc3ccc(CC(N)C(=O)O)cc3)cccc12 [Dansyl derivatives 1A, (S) isomer]
